One assay relates to CD4 D1D2. Briefly: SPR cross-inhibition: ⍺4β7 binding to immobilized CD4 D1D2 after preincubation of the surface with CD4 mAbs. The following applies: surface preincubated with mAb, Fig 8C. The text has this:
Fig 8 Mutating a gp120 contact site in CD4 D1 abrogates CD4-⍺4β7 interactions. (A) Positions of amino acid substitutions introduced into D1D2-Ig⍺tp are indicated on a space-filling model of CD4 D1D2. Substitutions at S42/F43 in D1 (green) and K171 in D2 (purple) are shown. Approximate locations of mAb Leu3A and ibalizumab epitopes are indicated. (B) Flow-cytometric analysis of increasing amounts of D1D2-Ig⍺tp and mutant derivatives binding to ⍺4β7 on CD8^+ T cells. Y-axis indicates % cells bound. (C) SPR analysis of soluble ⍺4β7 binding to a D1D2 coated surface following preincubation of the surface with ibalizumab (red), mAb Leu3A (light green), or ⍺4β7 (dark green). Y-axis indicates the mass of soluble ⍺4β7 bound at the end of the association phase. Mass of prebound inhibitors is subtracted. (D) Flow-cytometric analysis of unlabeled gp120 inhibiting PE labeled D1D2-Ig⍺tp binding to ⍺4β7 on CD8^+ T cells. The integrin ⍺4 antagonist FG was employed as a control. Y-axis indicates MFI.
Experiments were performed using a Biacore 3000 instrument (Cytiva Life Sciences) using CM4 or CM5 sensor chips. The data were evaluated using BIAevaluation 4.1.1 software (Cytiva Life Sciences). […] The ability of each analyte to inhibit either itself or ⍺4β7 was determined by comparing the binding of ⍺4β7 in the absence or presence of the listed pre-bound analytes as previously described. […]

Assay [1] has as its system ⍺4β7 on primary CD8^+ T cells. Briefly: Flow cytometry: FAM-conjugated pCD4^165-178 binding to RA-treated primary CD8^+ T cells. Set-up: species or system human. The following applies: FAM-Ttds-labelled peptide 1.25 μg/200,000 cells in 100 μl; MnCl2; 3 independent experiments. The source says:
To further investigate the interaction between pCD4^165-178 and ⍺4β7 we attached a fluorescein dye to its amino terminus via a trioxatridecan-succinamic acid (Ttds) linker (Fig 5A). A scrambled pCD4^165-178 was employed as a control. […] FIB504 and vedolizumab inhibited binding by ~50%. This inhibition pattern resembles the one we obtained when inhibiting D1D2-Ig⍺tp with the same antagonists (Fig 3). We conclude that the CD4 D2 G β-strand binds directly to the headpiece region of ⍺4β7 in a cation dependent manner. Support for this conclusion, in the form of site directed mutagenesis within the D2 G β-strand is provided below.
Fig 5 Direct binding of pCD4^165-178 to ⍺4β7 on primary T cells. (A) Sequence of FAM -conjugated pCD4^165-178 and a scrambled derivative (FAM-scr pCD4^165-178). (B) Flow-cytometry derived histogram of pCD4^165-178 binding to RA -cultured CD8^+ T cells. pCD4^165-178 in the presence (green), or absence of Mn^++(black). Unstained cells are shown (grey). (C) Binding of pCD4^165-178 and its scrambled derivative to CD8^+ T cells in the presence of MnCl2 as in panel B, and in the presence of ⍺4 and ⍺4β7 antagonists, as indicated. Y-axis indicates % cells bound. Error bars represent standard error from 3 independent experiments.
Cells were stained with fluoresceine conjugated mAbs or recombinant proteins using standard procedures preceded by Fc receptor blocking with human IgG. Buffers used were 10 mM HEPES 150 mM NaCl (HBS Buffer) with 100 μM CaCl2. 1 mM MnCl2 was also included, unless otherwise specified. Buffer without divalent cations included 0.1 mM EDTA. Unlabeled mAb or protein inhibitors were preincubated with cells or proteins at a 5X molar excess for 15 min on ice. FAM labeled peptides were used at 1.25 μg/ 200,000 cells in a 100 μl volume. Data were acquired using a FACSCanto II (BD Biosciences) and analyzed with FlowJo software (BD Biosciences). Plotted MFI values represent absolute values.
(Flow cytometry measures light scatter and fluorescence of single cells or particles in a stream.)

For assay [2], the system named is ⍺4β7 on RPMI8866 cells. Briefly: Flow cytometry: D1D2-Ig⍺tp staining of RPMI8866 cells with ⍺4 and β7 antagonists. It is filed as binding, human. The following applies: antagonist at 10 μg/ml, 1 mM MnCl2. The text has this: (§1) Several mAbs and small molecule antagonists of ⍺4β7 and ⍺4β1 have been developed to treat diseases, including IBD and MS. […] Vedolizumab and etrolizumab are β7 mAbs, based on murine mAbs Act-1 and FIB504, respectively. Both are used to treat IBDs, [50, 51]. Natulizumab is an ⍺4 specific humanized version of the mouse mAb HP2/1 used to treat Multiple Sclerosis (MS). […] To determine whether these antagonists block CD4 binding to α4β7, we stained RPMI8866 cells with D1D2-Ig⍺tp in the absence or presence of increasing concentrations of each (Fig 3).
(§2) Y-axis indicates gMFI. Dashed and solid lines represent gMFI of D1D2-Ig⍺tp and MAdCAM-Ig respectively, in the absence of any antagonist.
(§3) Cells were stained with fluoresceine conjugated mAbs or recombinant proteins using standard procedures preceded by Fc receptor blocking with human IgG. Buffers used were 10 mM HEPES 150 mM NaCl (HBS Buffer) with 100 μM CaCl2. 1 mM MnCl2 was also included, unless otherwise specified.

Assay [3] deals with ⍺4β7 on RPMI8866 cells. Briefly: Flow cytometry: MAdCAM-Ig staining of RPMI8866 cells with ⍺4 and β7 antagonists. It is filed as binding, human. The following applies: antagonist at 1 μg/ml.
Description: as §1, §2, §3

Results on 2 substances are retold here after publication PMC10732398 (PLOS Pathogens, 2023).

As to Ibalizumab: CD4 D2 mAb, the “inhibition of ⍺4β7 binding to surface immobilized CD4 D1D2 (in words)” value in the assay with CD4 D1D2 is on record as “failed to inhibit”.
Take “Vedolizumab: β7 mAb based on murine mAb Act-1”: the “reduction of pCD4^165-178 binding to CD8^+ T cells” value in assay [1] was ~ 50%. In addition, in the assay with ⍺4β7 on RPMI8866 cells [2], the “reduction of D1D2-Ig⍺tp binding” value is ~ 50%. Further, in the assay on ⍺4β7 on RPMI8866 cells [3], the “inhibition of MAdCAM-Ig binding (in words)” value was “blocked MAdCAM-Ig efficiently”.
